# Measurements reported in patent US20120214862A1, “MODULATION OF FACTOR 7 EXPRESSION” (ISIS Pharmaceuticals, Inc., priority 2009, published 2012).
# In the oligonucleotide strings, read from the 5' end, every base follows the letter of its sugar. An asterisk marks phosphorothioate; unmarked linkages are phosphodiester. Other units and linkages are bracketed, terminal groups are in braces. A string of capitals states the bases alone. e = 2'-O-(2-methoxyethyl) (MOE); [5mC] = 5-methylcytosine; d = 2'-deoxy (DNA)
# Test system: human Factor 7 mRNA
# Test: Antisense inhibition of human Factor 7 mRNA in HepB3 cells, lipofectin, 50 nM, real-time RT-PCR
# Format: cell-based
# Details: for % Inhibition of human Factor 7 mRNA levels: HepB3 cells; for % Inhibition (human Factor 7 mRNA): Example 6 microwalk, nucleobases 15098 to 15122 of SEQ ID NO: 1, HepB3, lipofectin, 50 nM, ~24 h
# Procedure, shortened: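 Percent inhibition, untreated cells as reference: derived from RNA collected about 24 hours post-transfection of 4,000-cell wells, with the human RTS 2927 primer probe set and adjustment for total RNA content (RIBOGREEN®).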
# [1] = gapmers targeted to nucleobases 14707 to 14732 of SEQ ID NO: 1 (Table 11)
# [2] = gapmers (5-10-5, 3-14-3, 2-13-5 MOE) targeted to nucleobases 4868 to 4899 of SEQ ID NO: 1
# [3] = gapmers targeted to nucleobases 15188 to 15211 of SEQ ID NO: 1 (Table 13)
# [4] = gapmers targeted to nucleobases 11830 to 11869 of SEQ ID NO: 1 (Table 9)
substance,measurement,setting,value
422200 (antisense e[5mC]*e[5mC]*eT*dG*dA*dG*dG*d[5mC]*d[5mC]*dA*dG*d[5mC]*dA*dG*dA*dT*d[5mC]*eA*e[5mC]*eG) [compound 422200],% Inhibition of human Factor 7 mRNA levels,[1],58%
422201 (antisense eG*e[5mC]*e[5mC]*dT*dG*dA*dG*dG*d[5mC]*d[5mC]*dA*dG*d[5mC]*dA*dG*dA*dT*e[5mC]*eA*e[5mC]) [compound 422201],% Inhibition of human Factor 7 mRNA levels,[1],71%
422202 (antisense eA*eG*e[5mC]*d[5mC]*dT*dG*dA*dG*dG*d[5mC]*d[5mC]*dA*dG*d[5mC]*dA*dG*dA*eT*e[5mC]*eA) [compound 422202],% Inhibition of human Factor 7 mRNA levels,[1],49%
422203 (antisense e[5mC]*eA*eG*d[5mC]*d[5mC]*dT*dG*dA*dG*dG*d[5mC]*d[5mC]*dA*dG*d[5mC]*dA*dG*eA*eT*e[5mC]) [compound 422203],% Inhibition of human Factor 7 mRNA levels,[1],52%
422204 (antisense eG*e[5mC]*eA*dG*d[5mC]*d[5mC]*dT*dG*dA*dG*dG*d[5mC]*d[5mC]*dA*dG*d[5mC]*dA*eG*eA*eT) [compound 422204],% Inhibition of human Factor 7 mRNA levels,[1],72%
422205 (antisense eA*eG*e[5mC]*dA*dG*d[5mC]*d[5mC]*dT*dG*dA*dG*dG*d[5mC]*d[5mC]*dA*dG*d[5mC]*eA*eG*eA) [compound 422205],% Inhibition of human Factor 7 mRNA levels,[1],63%
422206 (antisense e[5mC]*eA*eG*d[5mC]*dA*dG*d[5mC]*d[5mC]*dT*dG*dA*dG*dG*d[5mC]*d[5mC]*dA*dG*e[5mC]*eA*eG) [compound 422206],% Inhibition of human Factor 7 mRNA levels,[1],65%
422207 (antisense e[5mC]*eA*e[5mC]*dA*d[5mC]*dA*dT*dG*dG*dA*dG*dT*d[5mC]*dA*dG*d[5mC]*dA*eT*e[5mC]*eG) [compound 422207],% Inhibition (human Factor 7 mRNA),,41%
422208 (antisense eG*e[5mC]*eA*d[5mC]*dA*d[5mC]*dA*dT*dG*dG*dA*dG*dT*d[5mC]*dA*dG*d[5mC]*eA*eT*e[5mC]) [compound 422208],% Inhibition (human Factor 7 mRNA),,56%
422209 (antisense eA*eG*e[5mC]*dA*d[5mC]*dA*d[5mC]*dA*dT*dG*dG*dA*dG*dT*d[5mC]*dA*dG*e[5mC]*eA*eT) [compound 422209],% Inhibition (human Factor 7 mRNA),,47%
422210 (antisense e[5mC]*eA*eG*d[5mC]*dA*d[5mC]*dA*d[5mC]*dA*dT*dG*dG*dA*dG*dT*d[5mC]*dA*eG*e[5mC]*eA) [compound 422210],% Inhibition (human Factor 7 mRNA),,25%
422211 (antisense eA*e[5mC]*eA*dG*d[5mC]*dA*d[5mC]*dA*d[5mC]*dA*dT*dG*dG*dA*dG*dT*d[5mC]*eA*eG*e[5mC]) [compound 422211],% Inhibition (human Factor 7 mRNA),,42%
422212 (antisense eG*eA*e[5mC]*dA*dG*d[5mC]*dA*d[5mC]*dA*d[5mC]*dA*dT*dG*dG*dA*dG*dT*e[5mC]*eA*eG) [compound 422212],% Inhibition (human Factor 7 mRNA),,30%
422213 (antisense eT*e[5mC]*eT*dG*d[5mC]*dA*dG*dG*dA*dG*d[5mC]*dG*dG*d[5mC]*d[5mC]*dT*dA*eA*eA*eT) [compound 422213],% Inhibition of human Factor 7 mRNA levels,[2],67%
422214 (antisense eT*eT*e[5mC]*dT*dG*d[5mC]*dA*dG*dG*dA*dG*d[5mC]*dG*dG*d[5mC]*d[5mC]*dT*eA*eA*eA) [compound 422214],% Inhibition of human Factor 7 mRNA levels,[2],60%
422216 (antisense eA*eG*eT*dT*d[5mC]*dT*dG*d[5mC]*dA*dG*dG*dA*dG*d[5mC]*dG*dG*d[5mC]*e[5mC]*eT*eA) [compound 422216],% Inhibition of human Factor 7 mRNA levels,[2],68%
422218 (antisense e[5mC]*eG*eA*dG*dT*dT*d[5mC]*dT*dG*d[5mC]*dA*dG*dG*dA*dG*d[5mC]*dG*eG*e[5mC]*e[5mC]) [compound 422218],% Inhibition of human Factor 7 mRNA levels,[2],70%
422219 (antisense e[5mC]*e[5mC]*eG*dA*dG*dT*dT*d[5mC]*dT*dG*d[5mC]*dA*dG*dG*dA*dG*d[5mC]*eG*eG*e[5mC]) [compound 422219],% Inhibition of human Factor 7 mRNA levels,[2],65%
422220 (antisense e[5mC]*e[5mC]*e[5mC]*dG*dA*dG*dT*dT*d[5mC]*dT*dG*d[5mC]*dA*dG*dG*dA*dG*e[5mC]*eG*eG) [compound 422220],% Inhibition of human Factor 7 mRNA levels,[2],59%
422221 (antisense eG*e[5mC]*e[5mC]*d[5mC]*dG*dA*dG*dT*dT*d[5mC]*dT*dG*d[5mC]*dA*dG*dG*dA*eG*e[5mC]*eG) [compound 422221],% Inhibition of human Factor 7 mRNA levels,[2],59%
422222 (antisense eA*eG*e[5mC]*d[5mC]*d[5mC]*dG*dA*dG*dT*dT*d[5mC]*dT*dG*d[5mC]*dA*dG*dG*eA*eG*e[5mC]) [compound 422222],% Inhibition of human Factor 7 mRNA levels,[2],55%
422223 (antisense eG*eA*eG*d[5mC]*d[5mC]*d[5mC]*dG*dA*dG*dT*dT*d[5mC]*dT*dG*d[5mC]*dA*dG*eG*eA*eG) [compound 422223],% Inhibition of human Factor 7 mRNA levels,[2],48%
422224 (antisense eG*eG*eA*dG*d[5mC]*d[5mC]*d[5mC]*dG*dA*dG*dT*dT*d[5mC]*dT*dG*d[5mC]*dA*eG*eG*eA) [compound 422224],% Inhibition of human Factor 7 mRNA levels,[2],62%
422225 (antisense eA*eG*eG*dA*dG*d[5mC]*d[5mC]*d[5mC]*dG*dA*dG*dT*dT*d[5mC]*dT*dG*d[5mC]*eA*eG*eG) [compound 422225],% Inhibition of human Factor 7 mRNA levels,[2],56%
422226 (antisense e[5mC]*eA*dT*dG*dG*dT*dG*dA*dT*dG*d[5mC]*dT*dT*d[5mC]*dT*eG*eA*eA*eT*eT) [compound 422226],% Inhibition of human Factor 7 mRNA levels,[3],41%
422227 (antisense eG*e[5mC]*dA*dT*dG*dG*dT*dG*dA*dT*dG*d[5mC]*dT*dT*d[5mC]*eT*eG*eA*eA*eT) [compound 422227],% Inhibition of human Factor 7 mRNA levels,[3],67%
422230 (antisense e[5mC]*eA*dT*dG*d[5mC]*dA*dT*dG*dG*dT*dG*dA*dT*dG*d[5mC]*eT*eT*e[5mC]*eT*eG) [compound 422230],% Inhibition of human Factor 7 mRNA levels,[3],65%
422231 (antisense eT*e[5mC]*dA*dG*dG*dG*d[5mC]*dT*dG*dG*dT*dT*dT*dT*dG*eG*eA*eG*eG*eA) [compound 422231],% Inhibition of human Factor 7 mRNA levels,[4],22%
422232 (antisense eG*eT*d[5mC]*dA*dG*dG*dG*d[5mC]*dT*dG*dG*dT*dT*dT*dT*eG*eG*eA*eG*eG) [compound 422232],% Inhibition of human Factor 7 mRNA levels,[4],41%
422233 (antisense eG*eG*dT*d[5mC]*dA*dG*dG*dG*d[5mC]*dT*dG*dG*dT*dT*dT*eT*eG*eG*eA*eG) [compound 422233],% Inhibition of human Factor 7 mRNA levels,[4],46%
422234 (antisense eT*eG*dG*dT*d[5mC]*dA*dG*dG*dG*d[5mC]*dT*dG*dG*dT*dT*eT*eT*eG*eG*eA) [compound 422234],% Inhibition of human Factor 7 mRNA levels,[4],62%
422235 (antisense eA*eT*dG*dG*dT*d[5mC]*dA*dG*dG*dG*d[5mC]*dT*dG*dG*dT*eT*eT*eT*eG*eG) [compound 422235],% Inhibition of human Factor 7 mRNA levels,[4],50%
422236 (antisense eA*eA*dT*dG*dG*dT*d[5mC]*dA*dG*dG*dG*d[5mC]*dT*dG*dG*eT*eT*eT*eT*eG) [compound 422236],% Inhibition of human Factor 7 mRNA levels,[4],44%
422237 (antisense e[5mC]*eA*dA*dT*dG*dG*dT*d[5mC]*dA*dG*dG*dG*d[5mC]*dT*dG*eG*eT*eT*eT*eT) [compound 422237],% Inhibition of human Factor 7 mRNA levels,[4],50%
